System: 454973-116-R2-J3-PDC spheroids, viability, % test/control
Assay: Anticancer human tumor 454973-116-R2-J3-PDC patient-derived pancreatic carcinoma cell line growth inhibition [GQUAD]
Conditions: spheroids with HUVEC and MSC; for IC50: curve of first compound; for viability, T/C: stronger effect = lower value
How it was run: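 Viability of tumor cells grown as complex spheroids with endothelial and stromal cells, exposed to drug combinations. Top concentration at or near clinical Cmax (else 10 microM), diluted in half-log increments.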

[1] = second compound 0.0316 µM, first compound 0.0316 µM
[2] = second compound 0.0316 µM, first compound 0.1 µM
[3] = second compound 0.0316 µM, first compound 0.316 µM
[4] = second compound 0.0316 µM, first compound 1 µM
[5] = second compound 0.0316 µM, first compound 3.16 µM
[6] = second compound 0.0316 µM, first compound 10 µM
[7] = second compound 0.1 µM, first compound 0.0316 µM
[8] = second compound 0.1 µM, first compound 0.1 µM
[9] = second compound 0.1 µM, first compound 0.316 µM
[10] = second compound 0.1 µM, first compound 1 µM
[11] = second compound 0.1 µM, first compound 3.16 µM
[12] = second compound 0.1 µM, first compound 10 µM
[13] = second compound 0.316 µM, first compound 0.0316 µM
[14] = second compound 0.316 µM, first compound 0.1 µM
[15] = second compound 0.316 µM, first compound 0.316 µM
[16] = second compound 0.316 µM, first compound 1 µM
[17] = second compound 0.316 µM, first compound 3.16 µM
[18] = second compound 0.316 µM, first compound 10 µM
[19] = second compound 1 µM, first compound 0.0316 µM
[20] = second compound 1 µM, first compound 0.1 µM
[21] = second compound 1 µM, first compound 0.316 µM
[22] = second compound 1 µM, first compound 1 µM
[23] = second compound 1 µM, first compound 3.16 µM
[24] = second compound 1 µM, first compound 10 µM
[25] = second compound 3.16 µM, first compound 0.0316 µM
[26] = second compound 3.16 µM, first compound 0.1 µM
[27] = second compound 3.16 µM, first compound 0.316 µM
[28] = second compound 3.16 µM, first compound 1 µM
[29] = second compound 3.16 µM, first compound 3.16 µM
[30] = second compound 3.16 µM, first compound 10 µM
[31] = second compound 10 µM, first compound 0.0316 µM
[32] = second compound 10 µM, first compound 0.1 µM
[33] = second compound 10 µM, first compound 0.316 µM
[34] = second compound 10 µM, first compound 1 µM
[35] = second compound 10 µM, first compound 3.16 µM
[36] = second compound 10 µM, first compound 10 µM
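Further: spheroids exposed to compounds for seven days.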
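Wherever viability, T/C is given: 100% = DMSO vehicle control viability.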

## C#Cc1c(F)ccc2cc(O)cc(-c3ncc4c(N5CC6CCC(C5)N6)nc(OCC56CCCN5CC(F)C6)nc4c3F)c12 (centres undefined) + CN(C)c1ccc(Nc2c3ccc(NC(=O)CCN4CCCC4)cc3nc3cc(NC(=O)CCN4CCCC4)ccc23)cc1
Second compound 0.0316 µM
  IC50: 41.7 nM
Second compound 0.1 µM
  IC50: 52.3 nM
Second compound 0.316 µM
  IC50: 31.8 nM
Second compound 1 µM
  IC50: < 31.6 nM
Second compound 3.16 µM
  IC50: 39.7 nM
Second compound 10 µM
  IC50: < 31.6 nM
[1]
  viability, T/C: 54.1%
[2]
  viability, T/C: 37.5%
[3]
  viability, T/C: 28.1%
[4]
  viability, T/C: 20.2%
[5]
  viability, T/C: 20.2%
[6]
  viability, T/C: 15.8%
[7]
  viability, T/C: 56.4%
[8]
  viability, T/C: 41.9%
[9]
  viability, T/C: 24.3%
[10]
  viability, T/C: 22.4%
[11]
  viability, T/C: 21.2%
[12]
  viability, T/C: 16.9%
[13]
  viability, T/C: 50%
[14]
  viability, T/C: 35.7%
[15]
  viability, T/C: 23%
[16]
  viability, T/C: 21.4%
[17]
  viability, T/C: 17.4%
[18]
  viability, T/C: 15.7%
[19]
  viability, T/C: 49.4%
[20]
  viability, T/C: 33.1%
[21]
  viability, T/C: 26.9%
[22]
  viability, T/C: 16.9%
[23]
  viability, T/C: 18.6%
[24]
  viability, T/C: 18%
[25]
  viability, T/C: 53.8%
[26]
  viability, T/C: 36%
[27]
  viability, T/C: 26.9%
[28]
  viability, T/C: 23%
[29]
  viability, T/C: 21.3%
[30]
  viability, T/C: 12.1%
[31]
  viability, T/C: 44.9%
[32]
  viability, T/C: 26.7%
[33]
  viability, T/C: 17.5%
[34]
  viability, T/C: 13.4%
[35]
  viability, T/C: 3.6%
[36]
  viability, T/C: 0.44%

## CC(=O)O[C@H]1C(=O)[C@@]2(C)[C@H]([C@H](OC(=O)c3ccccc3)[C@]3(O)C[C@H](OC(=O)[C@H](O)[C@@H](NC(=O)c4ccccc4)c4ccccc4)C(C)=C1C3(C)C)[C@]1(OC(C)=O)CO[C@@H]1C[C@@H]2O + CN(C)c1ccc(Nc2c3ccc(NC(=O)CCN4CCCC4)cc3nc3cc(NC(=O)CCN4CCCC4)ccc23)cc1
Second compound 0.0316 µM
  IC50: < 31.6 nM
Second compound 0.1 µM
  IC50: < 31.6 nM
Second compound 0.316 µM
  IC50: < 31.6 nM
Second compound 1 µM
  IC50: < 31.6 nM
Second compound 3.16 µM
  IC50: < 31.6 nM
Second compound 10 µM
  IC50: < 31.6 nM
[1]
  viability, T/C: 16.5%
[2]
  viability, T/C: 8.43%
[3]
  viability, T/C: 9.5%
[4]
  viability, T/C: 7.36%
[5]
  viability, T/C: 8.24%
[6]
  viability, T/C: 10.1%
[7]
  viability, T/C: 16%
[8]
  viability, T/C: 11.7%
[9]
  viability, T/C: 7.58%
[10]
  viability, T/C: 6.11%
[11]
  viability, T/C: 8.15%
[12]
  viability, T/C: 7.98%
[13]
  viability, T/C: 14%
[14]
  viability, T/C: 10%
[15]
  viability, T/C: 8.64%
[16]
  viability, T/C: 7.04%
[17]
  viability, T/C: 8.84%
[18]
  viability, T/C: 10.1%
[19]
  viability, T/C: 16%
[20]
  viability, T/C: 8.67%
[21]
  viability, T/C: 6.76%
[22]
  viability, T/C: 7.25%
[23]
  viability, T/C: 6.69%
[24]
  viability, T/C: 9.71%
[25]
  viability, T/C: 15.5%
[26]
  viability, T/C: 9.08%
[27]
  viability, T/C: 8.56%
[28]
  viability, T/C: 6.91%
[29]
  viability, T/C: 6.53%
[30]
  viability, T/C: 8.28%
[31]
  viability, T/C: 21.6%
[32]
  viability, T/C: 12.1%
[33]
  viability, T/C: 8.85%
[34]
  viability, T/C: 7.09%
[35]
  viability, T/C: 8.15%
[36]
  viability, T/C: 8.56%

— PubChem BioAssay AID2060508 (Molecular Pharmacology Branch, DTP, NCI, 2025)
